Assay [1] has as its system leukotriene C4-induced contraction of guinea pig peripheral strips. Kind of assay: SRS-A (slow-reacting substance of anaphylaxis) antagonists, leukotriene C4-induced contraction of guinea pig peripheral lung strips. In kind it is cell-based. Set-up: key to SRS-A degree of inhibitory activity: I: inactive; L: low activity; M: moderate activity; H: high activity. To be noted: for IC50: Cavia porcellus, 0.2 nM leukotriene C4, 37° C., read-out: SRS-A I50 (concentration required for 50% inhibition of 0.2 nM leukotriene C4-induced contraction); for SRS-A degree of inhibitory activity: 0.2 nM leukotriene C4, class symbol in the SRS-A I50 column. The procedure: Leukotrienes, the products of the 5-lipoxygenase pathway of arachidonic acid metabolism, are potent contractile agents with a variety of smooth muscle preparations. […] The following protocol describes an in vitro assay used to test compounds which specifically antagonize the actions of leukotrienes.
Peripheral strips of guinea pig lungs are prepared and hung in tissue baths (Metro # ME-5505, 10 ml) according to the published procedure (Proc. Nat'l Acad. Sci, U.S.A. Volume 77, pp. 4354-4358, 1980). The strips are thoroughly rinsed in Assay Buffer and then connected with surgical silk thread to the support rods from the tissue baths. The rods are adjusted in the baths and the strips connected to the pressure transducers (Grass FT 103 or Gould UC-3). The tissue baths are aerated with 95% oxygen-5% carbon dioxide and maintained at 37° C. The Assay Buffer has been made as follows: For each liter of buffer the following are added to approximately 800 ml of water distilled in glass--6.87 g. NaCl, 0.4 g. KCl, 2.1 g. NaHCO3, 0.14 g, NaH2 PO4.H2 O, 0.21 g. MgSO4.7H2 O, and 2.0 g. D-glucose. Then a solution of 0.368 g. CaCl2.2H2 O in 100 ml glass-distilled water is slowly added to the buffer. Sufficient water is added to adjust the volume to one liter, and the solution is aerated with 95% oxygen-5% carbon dioxide. Usually 10 liters of buffer are used for an experiment with 4 tissues.
After the tissues have been repeatedly washed and allowed to equilibrate in the tissue bath, they are challenged with 1 uM histamine. After maximum contractions have been obtained, the tissues are washed, and allowed to relax back to baseline tension. This histamine challenge procedure is repeated at least 1 to 2 more times to obtain a repeatable control response. The average response to 1 uM histamine for each tissue is used to normalize all other challenges.
Responses of each tissue to a pre-determined concentration of leukotriene are then obtained. Usually test compounds are examined initially at 30 uM on resting tension of the tissues without any added agonist or antagonist to determine if the compound has any possible intrinsic activity. The tissues are washed, and the test compound is added again. Leukotriene is added after the desired pre-incubation time. The intrinsic activity of the compounds, and their effect on leukotriene-induced contractions are then recorded.
The concentration required for 50% inhibition of 0.2 nM leukotriene C4 -induced contraction of guinea pig peripheral strips or degree of inhibitory activity for representative compounds of the present invention is shown in Table I denoted by SRS-A.

For a further assay, the system named is 5-lipoxygenase pathway. Kind of assay: Inhibitors of the Lipoxygenase Pathway (LOX), [14C]-5-HETE formation in rat neutrophils. In kind it is cell-based. Details: key to LOX degree of activity: I: inactive; L: low activity; M: moderate activity; H: high activity. To be noted: for IC50: Neutrophil; for LOX degree of activity: class symbol in the LOX I50 column. The procedure:
The following protocol describes an assay to detect inhibitors of the lipoxygenase pathway. Such inhibitors are believed to be capable of modulating the biosynthesis of the leukotrienes, a property believed to be useful in treating asthma and inflammatory disease states.
A suspension of rat neutrophils in buffer is incubated for 3 minutes at 30° C. with [^14 C]-arachidonic acid (AA) and Calcium Ionophore A23187. Citric Acid (2M) is used to quench the reaction. Following the addition of a trace amount of (^3 H)-5-HETE together with an excess of unlabeled 5-HETE to each tube, the mixture is extracted with chloroform/methanol. The organic layer is washed with dilute acid and an aliquot is transferred to glass tubes and dried. The residue is dissolved in a small volume of chloroform and an aliquot is spotted on silica gel TLC sheets, which are developed with an ethyl acetate/isoctane/water/acetic acid solvent system. The 5-HETE spots are visualized with iodine, cut out and placed in scintillation vials for counting. After adjusting for the extraction efficiency, the amount (pmole) of [^14 C]-5-HETE in each of the tubes is quantitated. The net pmoles of 5-HETE are obtained by substracting the pmoles of 5-HETE in the tubes containing buffer alone (blank) for the pmoles of 5-HETE in the tubes containing […]. The ability of the test compounds to modulate the activity of this enzyme is determined by a decrease or increase in the net amount of 5-HETE produced.

In assay [2] the test system is Human PMN (5-lipoxygenase pathway). Kind of assay: LOX, Human PMN. In kind it is cell-based. Set-up: key to LOX degree of activity, Human PMN: I: inactive; L: low activity; M: moderate activity; H: high activity.
Assay [3] has as its system SRS-A (slow reacting substances of anaphylaxis), anaphylactic bronchoconstriction in guinea pigs. Kind of assay: in vivo modulators of SRS-A: Bronchial Anaphylaxis in Guinea Pigs with Enhanced Leukotrines (BAGEL). Details: species or system guinea pig; key: I: inactive; L: low activity; M: moderate activity; H: high activity. To be noted: 15 min before ovalbumin challenge. The procedure:
Representative compounds of the present invention were also tested in the following in vivo model.
This test, known as the Bronchial Anaphylaxis in Guinea Pigs with Enhanced Leukotrines (BAGEL), is based on the procedure published in Agents and Actions, Vol. 11, pp. 396-401, 1981, and is performed with guinea pigs actively immunized (14 days) with ovalbumin (2.7 mg/kg, i.p.) and B.pertussis (5×10^9 organisms) as an adjuvant. Prior to challenge with antigen (ovalbumin), the animals are anesthetized and prepared for monitoring pulmonary dynamics by whole body plethysmography. They are treated with an H1 antihistamine (methapyrilene, 2 mg/kg, i.v.) and cyclooxygenase inhibitor (indomethacin; 20 mg/kg, i.p.) in order to enhance the SRS-A component of anaphylactic bronchoconstriction. Bronchoconstriction is quantified as the maximum increase in airway resistance following antigen challenge. The drug is administered either i.p. 10 minutes before challenge, or i.d. 15 minutes before challenge.

Where [4] appears, read: arachidonic acid + Ca ionophore A23187, 30° C., read-out: LOX I50 (concentration required for 50% inhibition of the 5-lipoxygenase pathway).

Where two headings read alike, the source gives them in different places.

`O=C(C=C1CSc2ccccc2N1)Nc1ccccc1`: the IC50 in assay [1] was 18 µM; in the assay with 5-lipoxygenase pathway (setting [4]), 1600 nM.
As to `CCOC(=O)C=C(C(=O)OCC)C(C(=O)OCC)=C1CSc2ccccc2N1`, the “LOX degree of activity, Human PMN” value in assay [2] (Human PMN, 135 μM) is “L”. The BAGEL activity result in assay [3] (30 mg/kg i.d.) is “H”. Also, in assay [1], the “SRS-A degree of inhibitory activity” value is on record as “I”. The IC50 in the assay on 5-lipoxygenase pathway (cell prints 3μ .M, read-out: LOX I50, unit printed in the cell) was 3000 nM.
As for `CCOC(=O)C=C1CSc2ccccc2N1`, the “SRS-A degree of inhibitory activity” value in assay [1] is “M”. Also, in the assay on 5-lipoxygenase pathway, the “LOX degree of activity” value was “I”.
In the case of `CCOC(=O)C(Cl)=C1CSc2ncccc2N1`, the IC50 turned out to be 1000 nM in assay [2] (Homo sapiens, read-out: LOX I50, Human PMN); 20 µM in assay [1]; 1200 nM in the assay with 5-lipoxygenase pathway (setting [4]). For the same compound, the BAGEL activity entry in assay [3] (200 mg/kg i.d.) is recorded as “M-H”.
With `O=C(C=C1CSc2ccccc2N1)Nc1ccccc1Cl`, the “LOX degree of activity” value in the assay on 5-lipoxygenase pathway is given as “M”.
Turning to `N#CC(C(N)=O)=C1CSc2ccccc2N1`, the IC50 in assay [1] turned out to be 25 µM. Moreover, the “LOX degree of activity” value in the assay with 5-lipoxygenase pathway is on record as “I”.
`CCOC(=O)c1c2csc3ccccc3n-2c(=O)c1O`: the “SRS-A degree of inhibitory activity” value in assay [1] is “I”. Moreover, the IC50 in the assay with 5-lipoxygenase pathway (setting [4]) was 12000 nM.
As to `CCOC(=O)C(Cl)=C1CSc2ccccc2N1`, the BAGEL activity result in assay [3] (200 mg/kg i.d.) was “L”. In addition, in assay [1], the “SRS-A degree of inhibitory activity” value is listed as “M”. Further, the IC50 in the assay with 5-lipoxygenase pathway (setting [4]) is 1700 nM.

For the origin of these results see US4576942A, “Anti-allergic and anti-inflammatory bi- and tri- cyclo-1,4-thiazine derivatives, composition, and method of use therefor” (USV Pharmaceutical Corp., priority 1984, dated 1986).
